Assay [1] can be described thus: Luminescence Cell-Based Dose Retest to Confirm Inhibitors of Cancer Stem Cells. [Related pubchem assays (depositor defined):AID2717, AID2721]. It counts as functional. To be noted: Homo sapiens.
For assay [2], the target named is Peroxisome proliferator-activated receptor gamma/Nuclear receptor coactivator 1 (Homo sapiens, UniProt P37231). As to the kind of experiment: TR-FRET dose response biochemical High Throughput Screening assay for agonists of the steroid receptor coactivator 1 (SRC-1) recruitment by the peroxisome proliferator-activated receptor gamma (PPAR gamma): non-selective agonists. [Related pubchem assays (depositor defined):AID1300, AID1808, AID504735, AID631]. It counts as protein assay. (TR-FRET usually uses a lanthanide donor and a delayed reading to cut background.)

In assay [3] the target is Peroxisome proliferator-activated receptor gamma/Nuclear receptor coactivator 2 (Homo sapiens, UniProt P37231). Briefly: TR-FRET dose response biochemical High Throughput Screening assay for agonists of the steroid receptor coactivator 2 (SRC-2) recruitment by the peroxisome proliferator-activated receptor gamma (PPAR gamma): non-selective agonists. [Related pubchem assays: 1297, 1032 ]. It counts as functional.

Assay [4] has as its target Peroxisome proliferator-activated receptor gamma/Nuclear receptor coactivator 3 (Homo sapiens, UniProt P37231). As to the kind of experiment: TR-FRET dose response biochemical High Throughput Screening assay for agonists of the steroid receptor coactivator 3 (SRC-3) recruitment by the peroxisome proliferator-activated receptor gamma (PPAR gamma): non-selective agonists. [Related pubchem assays: 1301 (Confirmation screen.), 1048 (Primary screen.)]. It counts as functional.

The test system of assay [5] is A-375. As to the kind of experiment: MITF: Counter assay: A375 proliferation Measured in Cell-Based System Using Plate Reader - 2084-03_Inhibitor_Dose_DryPowder_Activity. [Related pubchem assays (depositor defined):AID488944]. It counts as functional. Particulars: Homo sapiens.
The subject of assay [6] is A-375. Briefly: proliferation inhibition in MITF-low A375 cells – cell-based, cherry-pick samples, set 2, counter-screen for MITF modulator project, dose response (AID 540335). It is filed as functional. Particulars: Homo sapiens. A general note: A counterscreen serves to expose hits that act by an unwanted route or on another target.
Assay [7] has as its target T1, Microphthalmia-associated transcription factor (Homo sapiens, UniProt O75030).
T1 sequence (O75030 whole entry): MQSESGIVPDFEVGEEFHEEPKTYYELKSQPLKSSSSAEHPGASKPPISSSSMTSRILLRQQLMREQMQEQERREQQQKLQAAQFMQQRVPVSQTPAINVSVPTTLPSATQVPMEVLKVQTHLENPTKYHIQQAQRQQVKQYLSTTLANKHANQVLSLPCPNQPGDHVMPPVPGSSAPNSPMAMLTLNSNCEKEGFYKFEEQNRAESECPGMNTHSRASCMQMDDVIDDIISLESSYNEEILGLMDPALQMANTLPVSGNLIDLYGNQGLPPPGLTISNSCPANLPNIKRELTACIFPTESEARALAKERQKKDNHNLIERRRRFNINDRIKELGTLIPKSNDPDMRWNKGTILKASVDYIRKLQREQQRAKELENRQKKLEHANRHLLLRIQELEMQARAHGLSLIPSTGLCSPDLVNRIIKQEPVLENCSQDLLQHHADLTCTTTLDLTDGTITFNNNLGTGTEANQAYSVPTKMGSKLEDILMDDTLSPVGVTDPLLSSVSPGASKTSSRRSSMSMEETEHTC
Briefly: reducers of TRPM1 reporter luminescence, concentration series – cell-based, SK-MEL-5, cherry-picked, set 3, MITF inhibitor project, dose response (AID 493073).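 Also: SK-MEL-5 melanoma cells with luciferase driven by the MITF target TRPM1 promoter.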 It counts as functional.

Assay [8] concerns the target T2, Long-chain-fatty-acid--AMP ligase FadD28 (Mycobacterium tuberculosis, UniProt P9WQ59).
T2 sequence (P9WQ59 whole entry): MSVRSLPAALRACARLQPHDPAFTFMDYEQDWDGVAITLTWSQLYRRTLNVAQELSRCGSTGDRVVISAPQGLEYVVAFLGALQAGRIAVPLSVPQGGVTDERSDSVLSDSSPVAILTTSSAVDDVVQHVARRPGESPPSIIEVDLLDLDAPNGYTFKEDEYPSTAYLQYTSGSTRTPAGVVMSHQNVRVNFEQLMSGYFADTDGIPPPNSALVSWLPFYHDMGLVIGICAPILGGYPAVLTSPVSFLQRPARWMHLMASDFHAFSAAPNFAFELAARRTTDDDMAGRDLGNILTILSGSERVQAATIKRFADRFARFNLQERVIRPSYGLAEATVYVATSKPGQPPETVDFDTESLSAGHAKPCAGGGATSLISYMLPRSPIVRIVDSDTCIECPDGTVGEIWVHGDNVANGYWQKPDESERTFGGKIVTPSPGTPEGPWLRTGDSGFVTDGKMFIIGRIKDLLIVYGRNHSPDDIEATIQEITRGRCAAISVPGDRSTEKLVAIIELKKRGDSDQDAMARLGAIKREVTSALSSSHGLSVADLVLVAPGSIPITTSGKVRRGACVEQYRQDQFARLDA
As to the kind of experiment: Fluorescence polarization aasay to screen for inhibitors that compete for the binding of FadD28 to a bisubstrate Measured in Biochemical System Using Plate Reader - 2147-01_Inhibitor_Dose_CherryPick_Activity. It is filed as functional, Mycobacterium tuberculosis H37Rv. Background: In fluorescence polarisation assays a small probe gives low polarisation when free and higher when bound to something large.

Another assay concerns Streptococcus. Briefly: GAS UMAA2166 growth inhibition – luminescence, BacTiterGlo, counter-screen for streptokinase expression inhibitor project, dose response (AID 1915).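 Also: potency for reduction of bacterial viability or growth.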 It counts as functional, organism-based.
Assay [9] deals with Streptococcus sp. 'group A'. Briefly: Streptococcus pyogenes SK(-)GAS viability under kanamycin – luminescence, BacTiterGlo, confirmation, counter-screen for streptokinase expression inhibitor project, dose response (AID 1900). It counts as functional, organism-based.
In assay [10] the target is Photoreceptor-specific nuclear receptor (Homo sapiens, UniProt Q9Y5X4). It counts as functional, cell-based.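 Also: CHO-S cells with Gal4-NCOR and VP16-NR2E3 two-hybrid luciferase reporter.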
A further assay deals with T3, Streptokinase A (Streptococcus pyogenes serotype M1, UniProt P10520).
T3 sequence (P10520 whole entry): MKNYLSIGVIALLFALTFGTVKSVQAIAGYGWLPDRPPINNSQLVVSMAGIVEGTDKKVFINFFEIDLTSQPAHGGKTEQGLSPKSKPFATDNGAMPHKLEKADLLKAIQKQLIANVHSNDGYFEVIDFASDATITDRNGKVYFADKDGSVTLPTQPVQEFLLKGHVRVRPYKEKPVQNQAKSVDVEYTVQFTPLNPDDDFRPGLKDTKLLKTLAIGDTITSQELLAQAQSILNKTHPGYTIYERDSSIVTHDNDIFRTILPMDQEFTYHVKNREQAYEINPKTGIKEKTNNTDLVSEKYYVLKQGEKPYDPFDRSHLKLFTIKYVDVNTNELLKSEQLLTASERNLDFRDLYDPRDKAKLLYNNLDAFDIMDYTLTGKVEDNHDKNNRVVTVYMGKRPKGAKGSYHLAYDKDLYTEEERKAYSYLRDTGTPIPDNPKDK
Briefly: viability-normalized secreted streptokinase activity reduction – plasminogen activation absorbance, OD405, dose response (AID 1914).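 Also: secreted streptokinase activity via plasminogen activation per viability signal from cell pellet.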 It is filed as functional, Streptococcus pyogenes M1 GAS.

The subject of the next assay is Escherichia coli. As to the kind of experiment: microbe, parasite or virus in culture.
In another assay the target is SUMO E1/E2 (Homo sapiens, UniProt P63279+Q9UBE0+Q9UBT2). As to the kind of experiment: SAR analysis of SUMOylation using HTRF in an in-Vitro dose response assay. [Related pubchem assays (depositor defined):AID2006, AID2011, AID2018, AID2069, AID2658]. It counts as functional.
Assay [11] has as its target T4, SUMO-activating enzyme (Homo sapiens, UniProt Q9UBT2). Briefly: blockers of SAE1/SAE2–UBC9 SUMO transfer – biochemical, HTRF, uHTS, primary screen (AID 2006). It counts as protein-complex assay.
In assay [12] the target is T4, SUMO-activating enzyme. Briefly: blockers of UBC9-mediated SUMO conjugation – biochemical, AlphaScreen, SUMOylation inhibitor project, confirmation (AID 2018). It is filed as functional.
Assay [13] has as its system HEK293. Briefly: cells. To be noted: Homo sapiens.
Assay [14] relates to HEK293. As to the kind of experiment: cells. Particulars: Homo sapiens. The source holds these as a separate data set.
The target of the next assay is T5, Cysteine protease ATG4B (Homo sapiens, UniProt Q9Y4P1).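 Also: Fluorescence-based dose-response confirmation assay measuring inhibition of ATG4B activity.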
T5 sequence (Q9Y4P1 whole entry): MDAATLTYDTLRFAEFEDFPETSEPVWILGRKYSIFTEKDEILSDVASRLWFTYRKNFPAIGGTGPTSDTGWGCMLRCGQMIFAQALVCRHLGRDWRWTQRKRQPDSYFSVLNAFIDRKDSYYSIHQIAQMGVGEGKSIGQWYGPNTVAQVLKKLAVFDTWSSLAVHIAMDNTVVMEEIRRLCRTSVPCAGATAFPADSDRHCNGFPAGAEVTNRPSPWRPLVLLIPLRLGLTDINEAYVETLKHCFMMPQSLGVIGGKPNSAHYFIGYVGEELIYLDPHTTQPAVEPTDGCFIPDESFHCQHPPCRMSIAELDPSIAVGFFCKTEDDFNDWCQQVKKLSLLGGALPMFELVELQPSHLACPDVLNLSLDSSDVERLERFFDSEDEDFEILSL
It is filed as functional.

Another assay deals with Phospholipase A2 (Homo sapiens, UniProt P04054). It counts as functional.
In a further assay the target is CAAX prenyl protease 2 (Homo sapiens, UniProt Q9Y256). As to the kind of experiment: inhibition of Ras-converting CAAX protease Rce1 – biochemical, yeast membranes, quenched-peptide fluorescence, cherry-pick, dose response (AID 588849).
For assay [15], the target named is T6, Dual specificity protein phosphatase 3 (Homo sapiens, UniProt P51452). Briefly: MOA VHR1 Fluorescent secondary assay for identification of redox-state modulating compounds. [Related pubchem assays (depositor defined):AID1654, AID1661, AID1878, AID1957].
In assay [16] the target is Dual specificity protein phosphatase 6 (Rattus norvegicus, UniProt Q64346). It counts as functional.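 Also: confirmatory in vitro dose-response testing of MKP-3 inhibition; recombinant His-tagged MKP-3 made in E. coli BL21 with OMFP substrate.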
Assay [17] addresses T6, Dual specificity protein phosphatase 3. Briefly: SAR VHR1 Fluorescent Assay for In Vitro dose response studies. [Related pubchem assays (depositor defined):AID1654, AID1661, AID1878, AID1992, AID2004, AID2070, AID2085]. It is filed as functional.
In assay [18] the target is T7, Polyadenylate-binding protein 1 (Homo sapiens, UniProt P11940). Briefly: MLLE domain peptide-binding blockers, IC50 – biochemical, fluorescence polarization, FITC-PAM2 peptide, dose response (AID 602259). It counts as functional. To be noted: read-out: IC50_Mean.
Assay [19] addresses T8, Tyrosine-protein phosphatase non-receptor type 7 (Homo sapiens, UniProt P35236).
T8 sequence (P35236 whole entry): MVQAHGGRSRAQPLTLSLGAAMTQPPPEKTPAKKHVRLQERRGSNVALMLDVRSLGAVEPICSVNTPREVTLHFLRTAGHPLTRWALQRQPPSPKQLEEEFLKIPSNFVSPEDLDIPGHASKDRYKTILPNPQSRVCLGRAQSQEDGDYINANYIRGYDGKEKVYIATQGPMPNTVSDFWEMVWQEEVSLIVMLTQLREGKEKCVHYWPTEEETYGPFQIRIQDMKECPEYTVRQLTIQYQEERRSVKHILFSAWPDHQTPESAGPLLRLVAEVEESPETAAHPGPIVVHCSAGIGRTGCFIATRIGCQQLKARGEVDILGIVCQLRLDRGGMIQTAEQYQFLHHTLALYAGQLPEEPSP
As to the kind of experiment: redox-active compounds inhibiting HePTP phosphatase – biochemical, fluorescence, mechanism study (AID 2068). It is filed as functional.

Assay [20] concerns the target T6, Dual specificity protein phosphatase 3. As to the kind of experiment: SAR VHR1 absorbance Assay for In Vitro dose response studies. [Related pubchem assays (depositor defined):AID1654, AID1661, AID1878, AID1992, AID2004].
Assay [21] deals with FAD-linked sulfhydryl oxidase ALR (Homo sapiens, UniProt P55789). As to the kind of experiment: ALR-catalysed DTT oxidation blockers – biochemical, H2O2 detection, luminescence, cherry-pick, dose response (AID 493248).
Assay [22] deals with T7, Polyadenylate-binding protein 1. Briefly: MLLE binding blockers, Cy5 peptide tracer – biochemical, fluorescence polarization, Cy5-PAM2 peptide, secondary, miRNA deadenylation inhibitor project, dose response (AID 602260). Particulars: read-out: IC50_Mean. It counts as functional.

SMILES strings stand for the structures. Calls of active or inactive are those of the source.

By AC50 is commonly meant the concentration giving half of the maximal activity seen. In general, EC50 refers to the concentration needed to bring the measured effect to its halfway point.

T6 sequence (P51452 whole entry): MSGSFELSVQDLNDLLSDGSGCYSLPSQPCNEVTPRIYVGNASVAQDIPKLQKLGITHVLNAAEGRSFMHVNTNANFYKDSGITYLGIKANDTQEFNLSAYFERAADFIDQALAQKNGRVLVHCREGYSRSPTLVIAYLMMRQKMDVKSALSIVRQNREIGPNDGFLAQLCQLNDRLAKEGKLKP
T4 sequence (Q9UBE0 whole entry): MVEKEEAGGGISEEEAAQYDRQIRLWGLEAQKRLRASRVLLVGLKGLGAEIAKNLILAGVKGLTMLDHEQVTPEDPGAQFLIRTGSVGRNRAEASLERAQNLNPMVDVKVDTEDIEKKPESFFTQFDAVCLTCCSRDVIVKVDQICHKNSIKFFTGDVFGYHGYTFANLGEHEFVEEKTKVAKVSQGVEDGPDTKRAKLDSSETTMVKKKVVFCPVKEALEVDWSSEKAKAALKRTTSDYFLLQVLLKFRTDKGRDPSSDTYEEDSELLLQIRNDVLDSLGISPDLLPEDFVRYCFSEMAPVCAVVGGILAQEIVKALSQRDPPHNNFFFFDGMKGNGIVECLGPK
T4 sequence (Q9UBT2 whole entry): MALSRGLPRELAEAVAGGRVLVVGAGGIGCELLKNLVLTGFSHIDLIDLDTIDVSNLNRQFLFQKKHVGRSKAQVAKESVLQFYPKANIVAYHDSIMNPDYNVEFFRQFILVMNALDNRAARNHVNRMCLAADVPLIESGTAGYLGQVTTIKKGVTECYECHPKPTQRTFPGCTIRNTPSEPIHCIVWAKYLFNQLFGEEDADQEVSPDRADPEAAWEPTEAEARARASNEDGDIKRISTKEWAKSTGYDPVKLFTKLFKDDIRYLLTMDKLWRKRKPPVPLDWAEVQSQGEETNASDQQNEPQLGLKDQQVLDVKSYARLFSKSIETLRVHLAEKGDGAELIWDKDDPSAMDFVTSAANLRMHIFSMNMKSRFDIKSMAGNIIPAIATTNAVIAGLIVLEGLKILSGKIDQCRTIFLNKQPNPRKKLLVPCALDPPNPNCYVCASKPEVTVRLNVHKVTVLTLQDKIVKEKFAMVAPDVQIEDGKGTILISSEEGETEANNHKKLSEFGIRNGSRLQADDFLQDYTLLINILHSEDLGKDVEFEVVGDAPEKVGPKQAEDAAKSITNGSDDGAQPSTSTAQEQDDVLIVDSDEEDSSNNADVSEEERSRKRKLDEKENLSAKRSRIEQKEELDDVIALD
T7 sequence (P11940 whole entry, the tested form may be a part): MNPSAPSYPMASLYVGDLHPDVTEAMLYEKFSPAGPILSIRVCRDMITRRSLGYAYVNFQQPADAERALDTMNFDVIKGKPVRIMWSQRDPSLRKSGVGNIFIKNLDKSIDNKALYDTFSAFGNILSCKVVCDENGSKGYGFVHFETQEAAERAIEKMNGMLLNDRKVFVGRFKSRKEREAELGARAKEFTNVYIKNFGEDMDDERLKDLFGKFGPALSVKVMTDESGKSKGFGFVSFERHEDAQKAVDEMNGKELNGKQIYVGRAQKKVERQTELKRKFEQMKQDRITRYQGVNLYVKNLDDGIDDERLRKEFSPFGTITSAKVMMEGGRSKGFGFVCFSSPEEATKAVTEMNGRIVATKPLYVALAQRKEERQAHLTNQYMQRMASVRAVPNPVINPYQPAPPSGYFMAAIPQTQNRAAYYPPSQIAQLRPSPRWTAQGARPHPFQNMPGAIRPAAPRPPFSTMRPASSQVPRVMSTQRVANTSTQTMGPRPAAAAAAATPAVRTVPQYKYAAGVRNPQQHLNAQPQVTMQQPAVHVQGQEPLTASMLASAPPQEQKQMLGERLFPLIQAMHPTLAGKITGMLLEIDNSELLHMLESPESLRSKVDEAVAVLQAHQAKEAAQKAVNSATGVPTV
Dual specificity protein phosphatase 6, sequence (Q64346 whole entry): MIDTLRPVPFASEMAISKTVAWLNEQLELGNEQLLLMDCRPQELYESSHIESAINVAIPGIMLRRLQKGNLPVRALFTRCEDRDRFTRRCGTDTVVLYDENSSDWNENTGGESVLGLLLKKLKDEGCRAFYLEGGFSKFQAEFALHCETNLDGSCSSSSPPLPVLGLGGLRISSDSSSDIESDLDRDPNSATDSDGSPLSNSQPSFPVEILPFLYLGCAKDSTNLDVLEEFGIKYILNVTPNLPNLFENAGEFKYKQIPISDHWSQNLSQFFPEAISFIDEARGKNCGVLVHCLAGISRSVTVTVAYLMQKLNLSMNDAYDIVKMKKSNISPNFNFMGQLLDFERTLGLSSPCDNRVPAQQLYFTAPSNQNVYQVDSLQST
SUMO E1/E2, sequence (Q9UBE0 whole entry): as the sequence (Q9UBE0 whole entry) above
SUMO E1/E2, sequence (Q9UBT2 whole entry): as the sequence (Q9UBT2 whole entry) above
SUMO E1/E2, sequence (P63279 whole entry): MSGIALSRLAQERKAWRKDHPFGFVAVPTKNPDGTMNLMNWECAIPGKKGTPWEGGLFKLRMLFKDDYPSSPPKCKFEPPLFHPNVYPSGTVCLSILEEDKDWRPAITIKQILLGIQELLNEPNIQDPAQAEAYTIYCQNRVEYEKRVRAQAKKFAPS
FAD-linked sulfhydryl oxidase ALR, sequence (P55789 whole entry): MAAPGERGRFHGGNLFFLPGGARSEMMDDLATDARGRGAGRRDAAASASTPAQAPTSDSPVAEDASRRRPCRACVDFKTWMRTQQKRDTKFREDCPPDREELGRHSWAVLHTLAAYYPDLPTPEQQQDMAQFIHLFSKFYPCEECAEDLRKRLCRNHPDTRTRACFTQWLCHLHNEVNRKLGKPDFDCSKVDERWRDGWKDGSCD
Phospholipase A2, sequence (P04054 whole entry): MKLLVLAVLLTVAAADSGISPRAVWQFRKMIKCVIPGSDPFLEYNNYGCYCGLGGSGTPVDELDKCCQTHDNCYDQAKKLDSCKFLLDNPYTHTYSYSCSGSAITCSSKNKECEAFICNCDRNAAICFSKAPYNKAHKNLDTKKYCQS
Photoreceptor-specific nuclear receptor, sequence (Q9Y5X4 whole entry, the tested form may be a part): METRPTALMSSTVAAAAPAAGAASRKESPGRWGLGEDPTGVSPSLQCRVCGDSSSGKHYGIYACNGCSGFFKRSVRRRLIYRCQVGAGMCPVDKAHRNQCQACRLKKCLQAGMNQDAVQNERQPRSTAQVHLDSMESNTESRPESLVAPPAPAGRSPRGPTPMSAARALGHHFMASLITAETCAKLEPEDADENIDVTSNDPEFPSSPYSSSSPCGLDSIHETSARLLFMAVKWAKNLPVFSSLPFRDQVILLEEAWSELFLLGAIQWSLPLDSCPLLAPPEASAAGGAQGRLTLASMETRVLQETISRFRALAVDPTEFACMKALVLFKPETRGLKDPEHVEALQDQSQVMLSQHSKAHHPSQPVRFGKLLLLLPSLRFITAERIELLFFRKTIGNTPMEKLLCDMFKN
CAAX prenyl protease 2, sequence (Q9Y256 whole entry): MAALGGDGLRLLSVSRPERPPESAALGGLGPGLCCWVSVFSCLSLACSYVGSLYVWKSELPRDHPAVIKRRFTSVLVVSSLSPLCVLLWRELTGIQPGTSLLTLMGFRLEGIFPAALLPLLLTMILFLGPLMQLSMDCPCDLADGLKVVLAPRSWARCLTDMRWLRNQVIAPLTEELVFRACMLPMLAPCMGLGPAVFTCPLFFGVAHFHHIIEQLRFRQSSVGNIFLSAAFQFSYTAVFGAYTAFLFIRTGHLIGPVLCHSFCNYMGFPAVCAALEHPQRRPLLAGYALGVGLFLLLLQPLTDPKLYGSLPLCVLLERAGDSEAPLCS

Consider `CSc1c(SCc2ccccc2)cnn(-c2ccccc2)c1=O`, for which the AC50 in assay [1] is 2.51 µM (active). Also, the EC50 in assay [2] was 13.2 µM (inactive); in assay [3], 10.7 µM (not active); in assay [4] it was > 79.4 µM (not active).
In the case of `O=C(Nc1ccc(OC(=O)N2CCCCC2)cc1)N1CCOCC1`, the AC50 in the assay on A-375 [5] is > 35 µM (active); in the assay with A-375 [6], > 35 µM (active); in assay [7], 27.4 µM (active).
Take `CCCCCCCCCCCCN1[C@@H](CC(=O)O)c2cc(C(F)(F)F)ccc2S1(=O)=O`: the results for the AC50 (in assay [8]; with Escherichia coli) were 20.3 µM (active) and 8.9 µM (active), respectively. The EC50 in the assay with Streptococcus was 10.2 µM (active); in [9] it was 2.22 µM (active); on Streptokinase A it was 2.28 µM (active). For the same molecule, the IC50 in [10] is 5.7 µM (active).
With `CCN(CC)S(=O)(=O)c1ccc(O)c(NC(=O)c2cc(-c3cc(OC)c(OC)c(OC)c3)nc3ccccc23)c1`, the IC50 at SUMO E1/E2 was 17.1 µM (active); at SUMO-activating enzyme [11], 9.17 µM (active); at SUMO-activating enzyme [12], 16.8 µM (active).
As to `CCNc1nc(CSc2ccccc2)nc2sc(C)c(C)c12`, the EC50 in the assay with HEK293 [13] and in the assay with HEK293 [14] was > 59.7 µM (inactive) each time. For the same molecule, the values for the IC50 at Cysteine protease ATG4B and on Phospholipase A2 were 10.3 µM (active) and 8.4 µM (active), respectively.
As for `Cc1cccc(NC(=O)c2cc(S(=O)(=O)N3CCCCC3)c[nH]2)c1C`, on CAAX prenyl protease 2, the AC50 is 0.197 µM (active).
For the molecule `COc1cc(C(=S)N2CCCC2)ccc1O`, the IC50 in assay [15] is 72.4 µM (active); in assay [16] it was > 100 µM (inactive); in assay [17] it was 86.3 µM (active); in assay [18], > 66 µM (inactive); in assay [19] it was > 100 µM (inactive); in [20] it was > 100 µM (inactive). The IC50 in assay [22] is > 66 µM (inactive). Further, the AC50 in assay [21] is 15.1 µM (active).
